Experimental data published in patent US6017958A, “Method of treating malignant tumors with thyroxine analogues having no significant hormonal activity” (Octamer, Inc., priority 1997, dated 2000).
Where a name gives a salt, the structure may show the parent alone.

What was measured:
Earl's L cells = conditions: Kirshan, 1968; cited from earlier work
pADPRT = conditions: parent 6-amino-1,2-benzopyrene; cited from earlier work
HIV = conditions: parent 6-amino-1,2-benzopyrene; cited from earlier work
tumor = conditions: parent 6-amino-1,2-benzopyrene; cited from earlier work
MDA-MB-231 cells = experiment: Flow cytometry / M phase block; type: cell-based, human; conditions: colcemid 0.1 μg/ml, 4 hrs
Protocol: The MDA-MB-231 cell line was obtained from ATCC (Rockville, Md., USA) and cells were cultured in T-75 flasks at 37° C. in Minimum Essential Medium-alpha, supplemented with 10% FCS. In controls, not receiving DIME, 0.1 μg/ml colcemid was added to cultures for 4 hrs prior to the collection of metaphase-blocked cells and preparation of cell spreads. […] Cells (10^7) were isolated from T-75 trypsinization for 5 min with 0.025% trypsin, and sedimented by centrifugation, resuspended and kept in 10 ml of 75 mM KC1 at 37° C. for 10 min, resedimented, and fixed in 10 ml methanol-acetic acid, with four successive changes of methanol-acetic acid. An aliquot of the final cell suspension (100 μl) was dropped on ethanol-cleaned slides and air-dried.
Cells exposed to different treatments were grown to confluence, trypsinized, and washed with phosphate buffered saline (PBS). For nuclear analysis, cells were fixed in Vindelov Citrate cell buffer: sucrose 250 mM, trisodium citrate. 2H20 40 mM, DMSO 50 ml in 1000 ml solution, pH 7.6. Normal human lymphocytes obtained from blood were used as controls. Each cell sample and control was counted with a hemacytometer and the cell concentration was adjusted to 2×10^6 cells/ml. Two million cells from each cell line in a total volume of 2 ml were washed twice with fresh PBS, treated with 200 μg/ml RNAase at 37° C. for 30 min, and stained with 10 μg/ml propidium iodide for 45 min. Flow cytometric analysis was performed on a FACScan benchtop flow cytometer (Becton-Dickinson, San Jose, Calif., USA) equipped with an air-cooled argon laser tuned to 488 nm. Twenty thousand events were collected as six parameter list mode data for analysis and archival storage. Two light scatter parameters (forward and side), propidium iodide fluorescence measured at 575/26 nm and above 620 nm, and doublet discrimination by fluorescence pulse width and area were acquired at 1024 data channel resolution. Acquisition threshold was set on propidium iodide positive events above channel 100. Gating to exclude small debris, large clumps and cell doublets was done post acquisition.

[1] = system: iodine uptake into the thyroid; conditions: rat, in vivo; cited from earlier work
Rana pipiens tadpoles = conditions: tadpole metamorphosis; cited from earlier work
[2] = system: mouse pituitary thyrotropic tumors / non-malignant mouse pituitary adenoma; conditions: cited from earlier work

In the case of `CC[C@]1(O)C[C@@H]2CN(CCc3c([nH]c4ccccc34)[C@@](C(=O)OC)(c3cc4c(cc3OC)N(C)[C@H]3[C@@](O)(C(=O)OC)[C@H](OC(C)=O)[C@]5(CC)C=CCN6CC[C@]43[C@@H]65)C2)C1` [vinblastine sulfate], the “metaphase block / multinucleation” value (Earl's L cells) is listed as “induces metaphase blocked multinucleated cells”.

For `Nc1ccc2oc(=O)ccc2c1I` [5-iodo-6-amino-1,2-benzopyrone], the “pADPRT inhibitory potency versus parent compound” value (pADPRT) is listed as “significantly augmented”, the “antiHIV activity versus parent compound” value (HIV) is listed as “significantly augmented” and the “antitumor action versus parent compound” value (tumor) is listed as “significantly augmented”.

For `CN[C@H]1CCc2cc(OC)c(OC)c(OC)c2-c2ccc(OC)c(=O)cc21` [colcemid, reference compound], the “cell cycle block in M phase, comparison of DIME and colcemid” value (MDA-MB-231 cells) was “indistinguishable with respect to the cell cycle block in M phase”.

In the case of `N[C@@H](Cc1cc(I)c(Oc2cc(I)c(O)c(I)c2)c(I)c1)C(=O)O` [thyroxine], the “suppression of iodine uptake by the thyroid” value [1] is listed as “suppresses uptake of iodine by the thyroid”, the “metamorphosis / cell differentiating activity” value (Rana pipiens tadpoles) is listed as “induces cell differentiation” and the “growth of mouse pituitary tumor” value [2] is listed as “depress growth of non-malignant mouse pituitary thyrotropic tumors”.
